In PubChem BioAssay (NCI):
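Five compound concentrations were applied to cells in 96-well plates for 48 hours; endpoints were derived by simple linear interpolation of the resulting dose-response curve. At the GI50, growth is halved. TGI: total growth inhibition.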

Tests used:
Experiment in all cases: growth of human tumour cells (NCI), 48 h
786-0 renal = test system: 786-0 renal
ACHN renal = test system: ACHN renal
CAKI-1 renal = test system: CAKI-1 renal
CCRF-CEM leukemia = test system: CCRF-CEM leukemia
HCC-2998 colon = test system: HCC-2998 colon
HCT-15 colon = test system: HCT-15 colon
HT29 colon = test system: HT29 colon
KM12 colon = test system: KM12 colon
M14 melanoma = test system: M14 melanoma
MCF7 breast = test system: MCF7 breast
MOLT-4 leukemia = test system: MOLT-4 leukemia
NCI-H23 lung = test system: NCI-H23 lung
NCI-H460 lung = test system: NCI-H460 lung
NCI/ADR-RES ovarian = test system: NCI/ADR-RES ovarian
OVCAR-5 ovarian = test system: OVCAR-5 ovarian
OVCAR-8 ovarian = test system: OVCAR-8 ovarian
PC-3 prostate = test system: PC-3 prostate
RPMI-8226 leukemia = test system: RPMI-8226 leukemia
SK-MEL-2 melanoma = test system: SK-MEL-2 melanoma
SK-MEL-5 melanoma = test system: SK-MEL-5 melanoma
SK-OV-3 ovarian = test system: SK-OV-3 ovarian
SNB-19 CNS = test system: SNB-19 CNS
TK-10 renal = test system: TK-10 renal
A549 NSCLC = test system: A549 NSCLC
COLO 205 colon = test system: COLO 205 colon
DU-145 prostate = test system: DU-145 prostate
EKVX NSCLC = test system: EKVX NSCLC
HCT-116 colon = test system: HCT-116 colon
HOP-62 NSCLC = test system: HOP-62 NSCLC
HOP-92 NSCLC = test system: HOP-92 NSCLC
HS 578T breast = test system: HS 578T breast
IGROV1 ovarian = test system: IGROV1 ovarian
K-562 leukemia = test system: K-562 leukemia
LOX IMVI melanoma = test system: LOX IMVI melanoma
MALME-3M melanoma = test system: MALME-3M melanoma
MDA-MB-231 breast = test system: MDA-MB-231 breast
MDA-MB-435 = test system: MDA-MB-435
NCI-H226 lung = test system: NCI-H226 lung
NCI-H522 lung = test system: NCI-H522 lung
OVCAR-3 ovarian = test system: OVCAR-3 ovarian
OVCAR-4 ovarian = test system: OVCAR-4 ovarian
SF-268 CNS = test system: SF-268 CNS
SF-295 CNS = test system: SF-295 CNS
SK-MEL-28 melanoma = test system: SK-MEL-28 melanoma
SN12C renal = test system: SN12C renal
SNB-75 CNS = test system: SNB-75 CNS
SR leukemia = test system: SR leukemia
SW-620 colon = test system: SW-620 colon
T-47D breast = test system: T-47D breast
U251 CNS = test system: U251 CNS
UACC-257 melanoma = test system: UACC-257 melanoma
UACC-62 melanoma = test system: UACC-62 melanoma
UO-31 renal = test system: UO-31 renal

Cc1cn2c(/C=N/N=C(N)N)c(-c3cc(Cl)sc3Cl)nc2s1
GI50 (786-0 renal): 0.887 µM
TGI (786-0 renal): 1.83 µM
GI50 (ACHN renal): 0.908 µM
TGI (ACHN renal): 1.63 µM
GI50 (CAKI-1 renal): 6.18 µM
TGI (CAKI-1 renal): 26 µM
GI50 (CCRF-CEM leukemia): 0.76 µM
TGI (CCRF-CEM leukemia): 1.57 µM
GI50 (HCC-2998 colon): 0.888 µM
TGI (HCC-2998 colon): 1.6 µM
GI50 (HCT-15 colon): 1.84 µM
TGI (HCT-15 colon): 8.55 µM
GI50 (HT29 colon): 1.72 µM
TGI (HT29 colon): 12.1 µM
GI50 (KM12 colon): 0.736 µM
TGI (KM12 colon): 1.59 µM
GI50 (M14 melanoma): 0.874 µM
TGI (M14 melanoma): 1.56 µM
GI50 (MCF7 breast): 0.777 µM
TGI (MCF7 breast): 2.04 µM
GI50 (MOLT-4 leukemia): 1.17 µM
TGI (MOLT-4 leukemia): 2.06 µM
GI50 (NCI-H23 lung): 0.904 µM
TGI (NCI-H23 lung): 1.66 µM
GI50 (NCI-H460 lung): 1.74 µM
TGI (NCI-H460 lung): > 50 µM
GI50 (NCI/ADR-RES ovarian): 5.57 µM
TGI (NCI/ADR-RES ovarian): 13.3 µM
GI50 (OVCAR-5 ovarian): 0.886 µM
TGI (OVCAR-5 ovarian): 1.59 µM
GI50 (OVCAR-8 ovarian): 1.19 µM
TGI (OVCAR-8 ovarian): 2.9 µM
GI50 (PC-3 prostate): 0.8 µM
TGI (PC-3 prostate): 1.48 µM
GI50 (RPMI-8226 leukemia): 0.792 µM
TGI (RPMI-8226 leukemia): 1.73 µM
GI50 (SK-MEL-2 melanoma): 1.98 µM
TGI (SK-MEL-2 melanoma): > 50 µM
GI50 (SK-MEL-5 melanoma): 0.905 µM
TGI (SK-MEL-5 melanoma): 1.74 µM
GI50 (SK-OV-3 ovarian): 1.15 µM
TGI (SK-OV-3 ovarian): 2.78 µM
GI50 (SNB-19 CNS): 1.84 µM
TGI (SNB-19 CNS): > 50 µM
GI50 (TK-10 renal): 1.15 µM
TGI (TK-10 renal): 2.95 µM

Cc1cccc2c1ccc1c3occ(C)c3c(=O)oc21
GI50 (786-0 renal): > 100 µM
TGI (786-0 renal): > 100 µM
GI50 (A549 NSCLC): > 100 µM
TGI (A549 NSCLC): > 100 µM
GI50 (ACHN renal): > 100 µM
TGI (ACHN renal): > 100 µM
GI50 (CAKI-1 renal): > 100 µM
TGI (CAKI-1 renal): > 100 µM
GI50 (CCRF-CEM leukemia): > 100 µM
TGI (CCRF-CEM leukemia): > 100 µM
GI50 (COLO 205 colon): > 100 µM
TGI (COLO 205 colon): > 100 µM
GI50 (DU-145 prostate): > 100 µM
TGI (DU-145 prostate): > 100 µM
GI50 (EKVX NSCLC): 76.6 µM
TGI (EKVX NSCLC): > 100 µM
GI50 (HCC-2998 colon): > 100 µM
TGI (HCC-2998 colon): > 100 µM
GI50 (HCT-116 colon): > 100 µM
TGI (HCT-116 colon): > 100 µM
GI50 (HCT-15 colon): > 100 µM
TGI (HCT-15 colon): > 100 µM
GI50 (HOP-62 NSCLC): > 100 µM
TGI (HOP-62 NSCLC): > 100 µM
GI50 (HOP-92 NSCLC): 49.9 µM
TGI (HOP-92 NSCLC): > 100 µM
GI50 (HS 578T breast): > 100 µM
TGI (HS 578T breast): > 100 µM
GI50 (HT29 colon): > 100 µM
TGI (HT29 colon): > 100 µM
GI50 (IGROV1 ovarian): > 100 µM
TGI (IGROV1 ovarian): > 100 µM
GI50 (K-562 leukemia): > 100 µM
TGI (K-562 leukemia): > 100 µM
GI50 (KM12 colon): > 100 µM
TGI (KM12 colon): > 100 µM
GI50 (LOX IMVI melanoma): 80.3 µM
TGI (LOX IMVI melanoma): > 100 µM
GI50 (M14 melanoma): > 100 µM
TGI (M14 melanoma): > 100 µM
GI50 (MALME-3M melanoma): > 100 µM
TGI (MALME-3M melanoma): > 100 µM
GI50 (MCF7 breast): 23.4 µM
TGI (MCF7 breast): > 100 µM
GI50 (MDA-MB-231 breast): > 100 µM
TGI (MDA-MB-231 breast): > 100 µM
GI50 (MDA-MB-435): > 100 µM
TGI (MDA-MB-435): > 100 µM
GI50 (MOLT-4 leukemia): 51.5 µM
TGI (MOLT-4 leukemia): > 100 µM
GI50 (NCI-H226 lung): > 100 µM
TGI (NCI-H226 lung): > 100 µM
GI50 (NCI-H23 lung): > 100 µM
TGI (NCI-H23 lung): > 100 µM
GI50 (NCI-H460 lung): 93.1 µM
TGI (NCI-H460 lung): > 100 µM
GI50 (NCI-H522 lung): > 100 µM
TGI (NCI-H522 lung): > 100 µM
GI50 (NCI/ADR-RES ovarian): > 100 µM
TGI (NCI/ADR-RES ovarian): > 100 µM
GI50 (OVCAR-3 ovarian): > 100 µM
TGI (OVCAR-3 ovarian): > 100 µM
GI50 (OVCAR-4 ovarian): > 100 µM
TGI (OVCAR-4 ovarian): > 100 µM
GI50 (OVCAR-5 ovarian): > 100 µM
TGI (OVCAR-5 ovarian): > 100 µM
GI50 (OVCAR-8 ovarian): > 100 µM
TGI (OVCAR-8 ovarian): > 100 µM
GI50 (PC-3 prostate): > 100 µM
TGI (PC-3 prostate): > 100 µM
GI50 (RPMI-8226 leukemia): > 100 µM
TGI (RPMI-8226 leukemia): > 100 µM
GI50 (SF-268 CNS): > 100 µM
TGI (SF-268 CNS): > 100 µM
GI50 (SF-295 CNS): > 100 µM
TGI (SF-295 CNS): > 100 µM
GI50 (SK-MEL-2 melanoma): > 100 µM
TGI (SK-MEL-2 melanoma): > 100 µM
GI50 (SK-MEL-28 melanoma): > 100 µM
TGI (SK-MEL-28 melanoma): > 100 µM
GI50 (SK-MEL-5 melanoma): > 100 µM
TGI (SK-MEL-5 melanoma): > 100 µM
GI50 (SK-OV-3 ovarian): > 100 µM
TGI (SK-OV-3 ovarian): > 100 µM
GI50 (SN12C renal): > 100 µM
TGI (SN12C renal): > 100 µM
GI50 (SNB-19 CNS): > 100 µM
TGI (SNB-19 CNS): > 100 µM
GI50 (SNB-75 CNS): 45.7 µM
TGI (SNB-75 CNS): > 100 µM
GI50 (SR leukemia): > 100 µM
TGI (SR leukemia): > 100 µM
GI50 (SW-620 colon): > 100 µM
TGI (SW-620 colon): > 100 µM
GI50 (T-47D breast): 9.65 µM
TGI (T-47D breast): > 100 µM
GI50 (TK-10 renal): > 100 µM
TGI (TK-10 renal): > 100 µM
GI50 (U251 CNS): > 100 µM
TGI (U251 CNS): > 100 µM
GI50 (UACC-257 melanoma): > 100 µM
TGI (UACC-257 melanoma): > 100 µM
GI50 (UACC-62 melanoma): > 100 µM
TGI (UACC-62 melanoma): > 100 µM
GI50 (UO-31 renal): > 100 µM
TGI (UO-31 renal): > 100 µM
